Data on 28 compounds can be found in patent US11512053B2, “Arginine methyltransferase inhibitors and uses thereof” (priority 2013, dated 2022).

As a reminder, the IC50 is the concentration that gives 50% inhibition.

Experiment [1] addresses full-length human PRMT1 isoform 1 (GST-tagged) (Homo sapiens, UniProt Q99873). Description: PRMT1 Biochemical Assay (3H-SAM Flashplate, peptide substrate). An excerpt: General Materials. S-adenosylmethionine (SAM), S-adenosylhomocysteine (SAH), bicine, Tween20, dimethylsulfoxide (DMSO), bovine skin gelatin (BSG), and Tris(2-carboxyethyl)phosphine hydrochloride solution (TCEP) were purchased from Sigma-Aldrich at the highest level of purity possible. ^3H-SAM was purchase from American Radiolabeled Chemicals with a specific activity of 80 Ci/mmol. 384-well streptavidin Flashplates were purchased from PerkinElmer.
Protein Expression. Recombinant baculovirus were generated according to Bac-to-Bac kit instructions (Life Technologies). […] Infections were carried out at 27° C. for 48 hours, harvested by centrifugation, and stored at −80° C. for purification.
Protein Purification. […] GST-tagged PRMT1 was eluted with 50 mM Tris, 2 mM glutathione, pH 7.8, dialysed in buffer A and concentrated to 1 mg/mL.
General Procedure for PRMT1 Enzyme Assays on Peptide Substrates. The assays were all performed in a buffer consisting of 20 mM Bicine (pH=7.6), 1 mM TCEP, 0.005% BSG, and 0.002% Tween 20, prepared on the day of use. […] DMSO (1 ul) was added to Columns 11, 12, 23, 24, rows A-H for the maximum signal control and 1 ul of SAH, a known product and inhibitor of PRMT1, was added to columns 11, 12, 23, 24, rows I-P for the minimum signal control. A cocktail (40 ul) containing the PRMT1 enzyme was added by Multidrop Combi (Thermo-Fisher). The compounds were allowed to incubate with PRMT1 for 30 min at room temperature, then a cocktail (10 ul) containing SAM and peptide was added to initiate the reaction (final volume=51 ul). […] The assays were stopped by the addition of non-radiolabeled SAM (10 ul) to a final concentration of 300 uM, which dilutes the ^3H-SAM to a level where its incorporation into the peptide substrate is no longer detectable. 50 ul of the reaction in the 384-well polypropylene plate was then transferred to a 384-well Flashplate and the biotinylated peptides were allowed to bind to the streptavidin surface for at least 1 hour before being washed once with 0.1% Tween20 in a Biotek ELx405 plate washer. The plates were then read in a PerkinElmer TopCount plate reader to measure the quantity of ^3H-labeled peptide bound to the Flashplate surface, measured as disintegrations per minute (dpm) or alternatively, referred to as counts per minute (cpm).
Where dpm=disintegrations per minute, cmpd=signal in assay well, and min and max are the respective minimum and maximum signal controls.
Where top and bottom are the normally allowed to float, but may be fixed at 100 or 0 respectively in a 3-parameter fit. The Hill Coefficient normally allowed to float but may also be fixed at 1 in a 3-parameter fit. Y is the % inhibition and X is the compound concentration.

Experiment [2] addresses full-length human PRMT8 isoform 1 (Homo sapiens, UniProt Q9NR22). Put plainly: PRMT8 Biochemical Assay (3H-SAM Flashplate, peptide substrate). The note with it: read-out: Biochemical IC50 PRMT8. An excerpt:
General Materials. S-adenosylmethionine (SAM), S-adenosylhomocysteine (SAH), bicine, Tween20, dimethylsulfoxide (DMSO), bovine skin gelatin (BSG), isopropyl-β-D-thiogalactopyranoside (IPTG), and Tris(2-carboxyethyl)phosphine hydrochloride solution (TCEP) were purchased from Sigma-Aldrich at the highest level of purity possible. ^3H-SAM was purchase from American Radiolabeled Chemicals with a specific activity of 80 Ci/mmol. 384-well streptavidin Flashplates were purchased from PerkinElmer.
Substrates. Peptide representative of human histone H4 residues 31-45 was synthesized with an N-terminal linker-affinity tag motif and a C-terminal amide cap by 21st Century Biochemicals. The peptide was purified by high-performance liquid chromatography (HPLC) to greater than 95% purity and confirmed by liquid chromatography mass spectrometry (LC-MS). The sequence was Biot-Ahx-[…]-amide (SEQ ID NO.:8).
The resulting construct encodes an N-terminal GST tag and a thrombin cleavage sequence ([…] […] […] […] SPEF) (SEQ ID NO.:9) fused directly to Met 1 of PRMT8.
Protein Expression. E. coli (BL21(DE3) Gold, Stratagene) made competent by the CaCl2) method were transformed with the PRMT8 construct and ampicillin selection. Protein over-expression was accomplished by growing the PRMT8 expressing E. coli clone and inducing expression with 0.3 mM IPTG at 16° C. The culture was grown for 12 hours, harvested by centrifugation, and stored at −80° C. for purification.
Protein Purification. […] GST-tagged PRMT8 was eluted with 50 mM Tris, 2 mM glutathione, pH 7.8. Pooled fractions were cleaved by thrombin (10U) and dialysed in buffer A. GST was removed by reloading the cleaved protein sample onto glutathione sepharose column and PRMT8 was collected in the flow-through fractions. PRMT8 was purified further by ceramic hydroxyapatite chromatography. The column was washed with 50 mM phosphate buffer, 100 mM NaCl, 5% glycerol, 5 mM β-mercaptoethanol, pH 7.8 and PRMT8 was eluted by 100 mM phosphate in the same buffer. Protein was concentrated and buffer was exchanged to 50 mM Tris, 300 mM NaCl, 10% glycerol, 5 mM β-mercaptoethanol, pH 7.8 by ultrafiltration. The purity of recovered protein was 89%.
General Procedure for PRMT8 Enzyme Assays on Peptide Substrates. The assays were all performed in a buffer consisting of 20 mM Bicine (pH=7.6), 1 mM TCEP, 0.005% BSG, and 0.002% Tween 20, prepared on the day of use. Compounds in 100% DMSO (1 ul) were spotted into a polypropylene 384-well V-bottom plates (Greiner) using a Platemate Plus outfitted with a 384-channel head (Thermo Scientific). DMSO (1 ul) was added to Columns 11, 12, 23, 24, rows A-H for the maximum signal control and 1 ul of SAH, a known product and inhibitor of PRMT8, was added to columns 11, 12, 23, 24, rows I-P for the minimum signal control. A cocktail (40 ul) containing the PRMT8 enzyme was added by Multidrop Combi (Thermo-Fisher). The compounds were allowed to incubate with PRMT8 for 30 min at room temperature, then a cocktail (10 ul) containing ^3H-SAM and peptide was added to initiate the reaction (final volume=51 ul). The final concentrations of the components were as follows: PRMT8 was 1.5 nM, ^3H-SAM was 50 nM, non-radiolabeled SAM was 550 nM, peptide was 150 nM, SAH in the minimum signal control wells was 1 mM, and the DMSO concentration was 2%. The assays were stopped by the addition of non-radiolabeled SAM (10 ul) to a final concentration of 400 uM, which dilutes the ^3H-SAM to a level where its incorporation into the peptide substrate is no longer detectable. 50 ul of the reaction in the 384-well polypropylene plate was then transferred to a 384-well Flashplate and the biotinylated peptides were allowed to bind to the streptavidin surface for at least 1 hour before being washed once with 0.1% Tween20 in a Biotek ELx405 plate washer. […]

[3] abbreviates: single experiment or average of multiple experiments.

Like-named read-outs stand apart in the source and are kept apart here.

full-length human PRMT8 isoform 1, sequence (Q9NR22 whole entry, canonical isoform): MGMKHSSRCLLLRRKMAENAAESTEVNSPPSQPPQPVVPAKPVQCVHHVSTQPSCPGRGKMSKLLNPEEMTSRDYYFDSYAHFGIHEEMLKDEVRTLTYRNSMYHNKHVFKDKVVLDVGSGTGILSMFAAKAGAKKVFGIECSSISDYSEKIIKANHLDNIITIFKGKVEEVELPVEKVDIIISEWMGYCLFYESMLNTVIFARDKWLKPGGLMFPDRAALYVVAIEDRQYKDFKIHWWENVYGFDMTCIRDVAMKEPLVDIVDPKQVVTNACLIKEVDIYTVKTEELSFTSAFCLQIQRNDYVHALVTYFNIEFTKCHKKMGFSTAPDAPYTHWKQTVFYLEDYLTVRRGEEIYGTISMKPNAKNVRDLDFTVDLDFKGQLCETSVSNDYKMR
full-length human PRMT1 isoform 1 (GST-tagged), sequence (Q99873 with tags, fused parts or gaps): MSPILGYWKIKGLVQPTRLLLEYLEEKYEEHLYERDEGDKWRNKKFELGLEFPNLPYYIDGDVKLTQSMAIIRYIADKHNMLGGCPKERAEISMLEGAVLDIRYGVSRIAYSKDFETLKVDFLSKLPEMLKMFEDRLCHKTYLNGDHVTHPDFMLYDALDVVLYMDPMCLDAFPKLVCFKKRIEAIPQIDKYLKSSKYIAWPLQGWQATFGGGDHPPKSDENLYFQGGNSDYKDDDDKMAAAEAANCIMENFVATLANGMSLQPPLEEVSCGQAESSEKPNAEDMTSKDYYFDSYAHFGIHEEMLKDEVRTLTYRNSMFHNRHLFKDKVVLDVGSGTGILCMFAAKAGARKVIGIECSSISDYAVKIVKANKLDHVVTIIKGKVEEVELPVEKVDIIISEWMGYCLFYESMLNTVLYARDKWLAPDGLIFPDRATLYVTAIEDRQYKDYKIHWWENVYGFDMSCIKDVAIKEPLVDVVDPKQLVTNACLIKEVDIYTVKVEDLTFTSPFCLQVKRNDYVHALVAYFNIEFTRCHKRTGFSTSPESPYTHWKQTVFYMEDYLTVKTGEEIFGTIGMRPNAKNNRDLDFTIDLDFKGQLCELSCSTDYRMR

For `CNCCN(C)Cc1c[nH]nc1[C@H]1CC[C@H](O)C2(CCCCC2)C1` (racemic) [Compound 184, (1S,4S)-4-[4-({methyl[2-(methylamino)ethyl]amino}methyl)-1H-pyrazol-3-yl] spiro[5.5]undecan-1-ol], the IC50 in experiment [1] is less than 100 nM; in experiment [1] (setting [3]), 19.8 nM; in experiment [2], less than 100 nM; in experiment [2] (setting [3]), 47.3 nM.
For `CNCCN(C)Cc1c[nH]nc1[C@H]1CC[C@@H](O)C2(CCCCC2)C1` (single isomer, unassigned) [Compound 183], the half-maximal inhibitory concentration (IC50) in experiment [1] is less than 100 nM; in experiment [1] (setting [3]) it was 13.5 nM; in experiment [2], less than 100 nM; in experiment [2] (setting [3]) it was 39.4 nM.
Regarding `CN(CCN)Cc1c[nH]nc1CCc1ccccc1` [Compound 9], the 50% inhibitory concentration (IC50) is less than 100 nM in experiment [1], 10 nM in experiment [1] (setting [3]), 101 to 1000 nM in experiment [2] and 760 nM in experiment [2] (setting [3]).
For `CNCCN(C)Cc1c[nH]nc1[C@H]1CC[C@]2(CCC(C)(C)O2)CC1` [Compound 104], in that order: less than 100 nM, 8.04 nM, less than 100 nM and 11.6 nM.
`CNCCN(C)Cc1c[nH]nc1[C@H]1CC[C@@]2(CCOC2(C)C)CC1` [Compound 106, Methyl [2-(methylamino)ethyl]([3-[(5R,8R)-1,1-dimethyl-2-oxaspiro[4.5]decan-8-yl]-1H-pyrazol-4-yl]methyl)amine]: the concentration for half-maximal inhibition (IC50) in experiment [1] was less than 100 nM; in experiment [1] (setting [3]), 9.5 nM; in experiment [2], less than 100 nM; in experiment [2] (setting [3]), 14.5 nM.
Consider `CNCCN(C)Cc1c[nH]nc1[C@H]1CC[C@@H](N(CC2CCOCC2)C(=O)CC(C)C)CC1` [Compound 107], for which the IC50 in experiment [1] is less than 100 nM; in experiment [1] (setting [3]), 21.2 nM; in experiment [2] it was less than 100 nM; in experiment [2] (setting [3]), 55.4 nM.
Consider `CCC(=O)N(CC1CCOCC1)[C@H]1CC[C@@H](c2n[nH]cc2CN(C)CCNC)CC1` [Compound 108], for which the IC50 in experiment [1] is less than 100 nM; in experiment [1] (setting [3]), 61 nM; in experiment [2], 101 to 1000 nM; in experiment [2] (setting [3]), 252 nM.
Regarding `CNCCN(C)Cc1c[nH]nc1C1CCC2(CC1)CN(CC(C)C)C(=O)N2C` (stereo not shown) [Compound 145], the 50% inhibitory concentration (IC50) in experiment [1] is less than 100 nM; in experiment [1] (setting [3]), 26.2 nM.
On to `CNCCN(C)Cc1c[nH]nc1C1CCC2(CC1)CC(=O)N(Cc1ccc(OC)cc1)C2` (stereo not shown) [Compound 146], for which the results for the 50% inhibitory concentration (IC50) in experiment [1] and in experiment [1] (setting [3]) were less than 100 nM and 14 nM, respectively.
In the case of `CNCCN(C)Cc1c[nH]nc1C1CCC2(CC1)CNC(=O)C2` (stereo not shown) [Compound 147], the values for the IC50 in experiment [1] and in experiment [1] (setting [3]) were less than 100 nM and 18.3 nM, respectively.
Regarding `CC[C@H]1CC[C@H](c2n[nH]cc2CN(C)CCNC)CC1` [Compound 148], the values for the IC50 in experiment [1] and in experiment [1] (setting [3]) were less than 100 nM and 4.8 nM, respectively.
As for `CNCCN(C)Cc1c[nH]nc1C1CCC(C)CC1` (stereo not shown) [Compound 149], the half-maximal inhibitory concentration (IC50) in experiment [1] was less than 100 nM; in experiment [1] (setting [3]), 4.5 nM.
For `CNCCN(C)Cc1c[nH]nc1C1CCC2(CC1)OCC(C(C)C)CO2` (stereo not shown) [Compound 150], in that order: less than 100 nM and 44 nM.
In the case of `CNCCN(C)Cc1c[nH]nc1C1CCC2(CC1)CN(C)C(=O)N2CC(C)C` (stereo not shown) [Compound 151], the IC50 in experiment [1] was less than 100 nM; in experiment [1] (setting [3]), 36.9 nM.
For `CNCCN(C)Cc1c[nH]nc1C1CCC2(CC1)CCN(C)C2=O` (stereo not shown) [Compound 152], in that order: less than 100 nM and 14.2 nM.
As for `CNCCN(C)Cc1c[nH]nc1C1CCC(OCC(C)C)CC1` (stereo not shown) [Compound 153], the figures for the IC50 in experiment [1] and in experiment [1] (setting [3]) were less than 100 nM and 23.2 nM, respectively.
For `CCN1CC2(CCC(c3n[nH]cc3CN(C)CCNC)CC2)N(C)C1=O` (stereo not shown) [Compound 154], the figures for the half-maximal inhibitory concentration (IC50) in experiment [1] and in experiment [1] (setting [3]) were less than 100 nM and 17.7 nM, respectively.
Turning to `CNCCN(C)Cc1c[nH]nc1[C@H]1CC[C@]2(CC1)CC(=O)N(CC(C)C)C2` [Compound 155], the IC50 in experiment [1] is less than 100 nM; in experiment [1] (setting [3]), 31.5 nM.
On the same counts, the results for `CNCCN(C)Cc1c[nH]nc1[C@H]1CC[C@@]2(CC1)CC(=O)N(CC(C)C)C2` [Compound 156] are less than 100 nM and 17.2 nM.
As to `CNCCN(C)Cc1c[nH]nc1C1CCC2(CC1)CC(=O)N(C)C2` (stereo not shown) [Compound 157], the half-inhibitory concentration (IC50) in experiment [1] was less than 100 nM; in experiment [1] (setting [3]) it was 18.5 nM.
With `CCOC1CC(OCC)CC2(CCC(c3n[nH]cc3CN(C)CCNC)CC2)C1` (stereo not shown) [Compound 159], the IC50 in experiment [1] is less than 100 nM; in experiment [1] (setting [3]) it was 19.7 nM.
In the case of `CNCCN(C)Cc1c[nH]nc1C1CCC2(CC1)OCCCO2` [Compound 160], the results for the IC50 in experiment [1] and in experiment [1] (setting [3]) were less than 100 nM and 21.8 nM, respectively.
On the same counts, the results for `CNCCN(C)Cc1c[nH]nc1C1CCC2(CC1)C(=O)N(C)C(=O)N2C` (stereo not shown) [Compound 171] are less than 100 nM and 14.7 nM.
For `CNCCN(C)Cc1c[nH]nc1C1CCC2(CC1)CN(C)C(=O)N2C` (stereo not shown) [Compound 172], the 50% inhibitory concentration (IC50) in experiment [1] is less than 100 nM; in experiment [1] (setting [3]), 23 nM.
For `CNCCN(C)Cc1c[nH]nc1C1=CCC(CCOC)(CCOC)CC1` [Compound 173], in that order: less than 100 nM and 23.2 nM.
On to `CNCCN(C)Cc1c[nH]nc1C1CCC(CCOC)(CCOC)CC1` [Compound 174], for which the IC50 in experiment [1] is less than 100 nM; in experiment [1] (setting [3]) it was 15.5 nM.
On the same counts, the results for `CNCCN(C)Cc1c[nH]nc1[C@H]1CC[C@H](C(C)C)CC1` [Compound 180] are less than 100 nM and 4.9 nM.
With `CNCCN(C)Cc1c[nH]nc1[C@H]1CC[C@@H](C(C)C)CC1` [Compound 181], the IC50 is less than 100 nM in experiment [1] and 4.7 nM in experiment [1] (setting [3]).
